For one compound, whole-cell current results are on record in patent US7723029B2, “Biochips including ion transport detecting structures and methods of use” (Aviva Biosciences Corporation, priority 2002, dated 2010).

Structures are written as SMILES.

In this assay the test system is RBL-1 cell. To be noted: glass chip treated with base then H2O (FIG. 31) and conventional patch glass capillary (FIG. 30), addition of barium chloride.

Protocol: After baking, the glass chips were stored in de-ionized H2O for many hours (ranging from less than 1 hour to over 2 days). […] The whole cell recording on a RBL-1 cell on this chip for a ramping voltage protocol, in which the voltage applied across the cell membrane linearly varied with time from −120 mV to 60 mV at a rate of 120 mV/second, is shown in FIG. 29. […] With or without baking the chips, the glass chips were first treated with HNO3 (6 M) for 4 or 5 hours, then treated with NaOH (5M) for 30-45 minutes, and were then transferred into de-ionized H2O (pH=6-7) for storage/treatment. […] A ramping voltage protocol was used for the recording in FIG. 32, in which the voltage applied across the cell membrane linearly varied with time from −120 mV to 60 mV at a rate of 120 mV/second. […] A ramping voltage protocol was used for the recording in FIG. 33, in which the voltage applied across the cell membrane linearly varied with time from −120 mV to 60 mV at a rate of 120 mV/second. • (4) Laser polishing followed by Acid treatment and then by base treatment.

`[Ba+2].[Cl-].[Cl-]` [barium chloride]: the whole-cell current entry was “inhibition of the whole-cell current”.
